Measurements reported in patent publication US9969742B2, “Imidazotriazinone compounds” (Ironwood Pharmaceuticals, Inc., priority 2012, dated 2018).
Read-outs that look alike come from different tables or passages of the source. One block for each compound: values may come before it.

Columns and labels:
Assay type in all cases: biochemical
PDE1B = biological target: T1, PDE1B (Homo sapiens, UniProt Q01064); test: Phosphodiesterase enzyme screening assay, PDE1B
T1 construct: purchased Reaction Biology Corporation, Malvern, Pa
T1 sequence (Q01064 whole entry): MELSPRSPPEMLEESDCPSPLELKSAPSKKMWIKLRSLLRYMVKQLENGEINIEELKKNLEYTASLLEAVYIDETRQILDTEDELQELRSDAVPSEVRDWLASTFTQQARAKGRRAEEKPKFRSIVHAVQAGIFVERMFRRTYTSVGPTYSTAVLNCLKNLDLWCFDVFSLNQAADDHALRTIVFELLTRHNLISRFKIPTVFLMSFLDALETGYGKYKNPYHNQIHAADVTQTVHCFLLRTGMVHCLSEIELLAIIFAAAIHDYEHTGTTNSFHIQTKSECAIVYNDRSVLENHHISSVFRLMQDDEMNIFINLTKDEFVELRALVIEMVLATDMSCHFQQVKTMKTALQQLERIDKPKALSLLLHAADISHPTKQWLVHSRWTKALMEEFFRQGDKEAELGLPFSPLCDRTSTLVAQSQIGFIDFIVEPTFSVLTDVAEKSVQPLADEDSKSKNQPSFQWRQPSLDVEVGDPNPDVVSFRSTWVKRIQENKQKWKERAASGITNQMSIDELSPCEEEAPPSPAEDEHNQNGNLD
Summary of the method: (§1)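 Microfluidic mobility-shift assay; values from quadruplicate wells relative to controls. Conditions: 4.0 μM cGMP, 5 mM MgCl2, pH 7.5 HEPES, 1 h R.T., EDTA stop.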

PDE1A = biological target: T2, PDE1A (Homo sapiens, UniProt P54750); test: Phosphodiesterase enzyme screening assay, PDE1A
T2 construct: purchased Reaction Biology Corporation, Malvern, Pa
T2 sequence (P54750 whole entry): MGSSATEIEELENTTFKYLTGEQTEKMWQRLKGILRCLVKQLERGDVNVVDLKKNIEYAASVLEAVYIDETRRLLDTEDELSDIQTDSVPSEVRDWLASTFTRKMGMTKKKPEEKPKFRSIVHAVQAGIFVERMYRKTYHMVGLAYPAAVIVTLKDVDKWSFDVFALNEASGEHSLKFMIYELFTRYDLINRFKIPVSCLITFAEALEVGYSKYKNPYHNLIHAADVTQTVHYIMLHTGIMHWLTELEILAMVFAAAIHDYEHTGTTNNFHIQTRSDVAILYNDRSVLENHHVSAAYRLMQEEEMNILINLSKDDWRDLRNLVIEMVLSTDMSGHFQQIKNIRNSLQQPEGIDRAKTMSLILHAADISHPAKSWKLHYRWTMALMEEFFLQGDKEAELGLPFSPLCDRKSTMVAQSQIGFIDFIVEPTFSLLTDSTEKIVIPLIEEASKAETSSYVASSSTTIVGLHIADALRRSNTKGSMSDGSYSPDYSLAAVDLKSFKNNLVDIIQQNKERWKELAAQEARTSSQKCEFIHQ
Summary of the method: as §1

PDE9A2 = biological target: T3, PDE9A2 (Homo sapiens, UniProt O76083); test: Phosphodiesterase enzyme screening assay, PDE9A2
T3 construct: purchased Reaction Biology Corporation, Malvern, Pa
T3 sequence (O76083 1-533 isoform O76083-2): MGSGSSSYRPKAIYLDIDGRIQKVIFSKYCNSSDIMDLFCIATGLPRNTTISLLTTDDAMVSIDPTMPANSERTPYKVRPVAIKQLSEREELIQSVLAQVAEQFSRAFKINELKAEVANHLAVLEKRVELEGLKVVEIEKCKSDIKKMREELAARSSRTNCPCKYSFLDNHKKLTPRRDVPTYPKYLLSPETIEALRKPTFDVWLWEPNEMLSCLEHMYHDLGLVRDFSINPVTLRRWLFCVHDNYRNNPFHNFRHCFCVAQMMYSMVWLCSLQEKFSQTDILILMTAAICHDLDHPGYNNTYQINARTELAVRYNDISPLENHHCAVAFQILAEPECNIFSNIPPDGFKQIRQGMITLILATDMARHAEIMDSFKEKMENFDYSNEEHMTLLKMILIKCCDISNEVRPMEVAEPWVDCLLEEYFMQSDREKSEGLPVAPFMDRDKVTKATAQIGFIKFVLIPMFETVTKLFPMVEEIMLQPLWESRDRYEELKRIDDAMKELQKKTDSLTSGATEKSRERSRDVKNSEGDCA
Summary of the method: as §1

[1] = ratio of IC50 values PDE1B / PDE9A2, value greater than 1 = greater selectivity for PDE9A2
[2] = ratio of IC50 values PDE1A / PDE9A2, value greater than 1 = greater selectivity for PDE9A2
[3] = 4.0 μM cGMP substrate, 1 hour at R.T., read-out: Band (PDE9A2 IC50)
[4] = Table 1, ratio of IC50 values, value greater than 1 indicates greater selectivity for PDE9A2
[5] = Table 1, 10 concentrations, 4.0 μM cGMP substrate, 1 hour at R.T., read-out: Band (PDE9A2 IC50)
[6] = Table 2, ratio of IC50 values, value greater than 1 indicates greater selectivity for PDE9A2
[7] = ratio of IC50 values, PDE1B versus PDE9A2, value greater than 1 indicates greater selectivity for PDE9A2
[8] = ratio of IC50 values, PDE1A versus PDE9A2, value greater than 1 indicates greater selectivity for PDE9A2
[9] = ratio of IC50 values PDE1B vs PDE9A2, value greater than 1 indicates greater selectivity for PDE9A2
[10] = ratio of IC50 values PDE1A vs PDE9A2, value greater than 1 indicates greater selectivity for PDE9A2
[11] = IC50 band, 4.0 μM cGMP substrate, 1 hour at R.T.

PDE1B selectivity (versus PDE9A2) (PDE1B; [1]): 140
PDE1A selectivity (versus PDE9A2) (PDE1A; [2]): 91
IC50 (PDE9A2; [3]): < 1000 nM
Structure (SMILES): CC1CN(Cc2cccs2)CC1c1nn2c(C3CCOCC3)ncc2c(=O)[nH]1 (single isomer, unassigned; (+)) [(+)-2-((3,4-trans)-4-methyl-1-(thiophen-2-ylmethyl)pyrrolidin-3-yl)-7-(tetrahydro-2H-pyran-4-yl)imidazo[5,1-f][1,2,4]triazin-4(3H)-one]

PDE1B selectivity (versus PDE9A2) (PDE1B; ratio of IC50 values, PDE1B versus PDE9A2, value greater than 1 = greater selectivity for PDE9A2): 209
PDE1A selectivity (versus PDE9A2) (PDE1A; ratio of IC50 values, PDE1A versus PDE9A2, value greater than 1 = greater selectivity for PDE9A2): 176
IC50 (PDE9A2; Table 3, 4.0 μM cGMP substrate, 1 hour at R.T., read-out: Band (PDE9A2 IC50)): < 1000 nM
Structure (SMILES): CC1CN(Cc2ccsc2)CC1c1nn2c(C3CCOCC3)ncc2c(=O)[nH]1 (single isomer, unassigned; (+)) [(+)-2-((3,4-trans)-4-methyl-1-(thiophen-3-ylmethyl)pyrrolidin-3-yl)-7-(tetrahydro-2H-pyran-4-yl)imidazo[5,1-f][1,2,4]triazin-4(3H)-one]

PDE1B selectivity (versus PDE9A2) (PDE1B; [4]): 23
PDE1A selectivity (versus PDE9A2) (PDE1A; [4]): 28
IC50 (PDE9A2; [5]): < 1000 nM
Structure (SMILES): CC1CN(CCc2ccccc2)CC1c1nn2c(C3CCOCC3)ncc2c(=O)[nH]1 (single isomer, unassigned; (+)) [(+)-2-((3,4-trans)-4-methyl-1-phenethylpyrrolidin-3-yl)-7-(tetrahydro-2H-pyran-4-yl)imidazo[5,1-f][1,2,4]triazin-4(3H)-one]

Structure (SMILES): CC1CN(Cc2ccccc2C#N)CC1c1nn2c(C3CCOCC3)ncc2c(=O)[nH]1 (single isomer, unassigned; (+)) [(+)-2-(((3,4-trans)-3-methyl-4-(4-oxo-7-(tetrahydro-2H-pyran-4-yl)-3,4-dihydroimidazo[5,1-f][1,2,4]triazin-2-yl)pyrrolidin-1-yl)methyl)benzonitrile]
PDE1B selectivity (versus PDE9A2) (PDE1B; [4]): 220
PDE1A selectivity (versus PDE9A2) (PDE1A; [4]): 241
IC50 (PDE9A2; [5]): < 1000 nM

PDE1B selectivity (versus PDE9A2) (PDE1B; [6]): 65
PDE1A selectivity (versus PDE9A2) (PDE1A; [6]): 22
IC50 (PDE9A2; Table 2, 10 concentrations, 4.0 μM cGMP substrate, 1 hour at R.T., read-out: Band (PDE9A2 IC50)): < 1000 nM
Structure (SMILES): CC1CN(Cc2ncc(C#N)cn2)CC1c1nn2c(C3CCOCC3)ncc2c(=O)[nH]1 (single isomer, unassigned; (+)) [(+)-2-(((3,4-trans)-3-methyl-4-(4-oxo-7-(tetrahydro-2H-pyran-4-yl)-3,4-dihydroimidazo[5,1-f][1,2,4]triazin-2-yl)pyrrolidin-1-yl)methyl)pyrimidine-5-carbonitrile]

PDE1B selectivity (versus PDE9A2) (PDE1B; [1]): 58
PDE1A selectivity (versus PDE9A2) (PDE1A; [2]): 61
IC50 (PDE9A2; [3]): < 1000 nM
Structure (SMILES): CC1CN(Cc2ccc(F)c(C#N)c2)CC1c1nn2c(C3CCOCC3)ncc2c(=O)[nH]1 (single isomer, unassigned; (+)) [(+)-2-fluoro-5-(((3,4-trans)-3-methyl-4-(4-oxo-7-(tetrahydro-2H-pyran-4-yl)-3,4-dihydroimidazo[5,1-f][1,2,4]triazin-2-yl)pyrrolidin-1-yl)methyl)benzonitrile]

Structure (SMILES): CC1CN(Cc2cccc(C#N)c2)CC1c1nn2c(C3CCOCC3)ncc2c(=O)[nH]1 (single isomer, unassigned; (+)) [(+)-3-(((3,4-trans)-3-methyl-4-(4-oxo-7-(tetrahydro-2H-pyran-4-yl)-3,4-dihydroimidazo[5,1-f][1,2,4]triazin-2-yl)pyrrolidin-1-yl)methyl)benzonitrile]
PDE1B selectivity (versus PDE9A2) (PDE1B; [4]): 343
PDE1A selectivity (versus PDE9A2) (PDE1A; [4]): 942
IC50 (PDE9A2; [5]): < 1000 nM

PDE1B selectivity (versus PDE9A2) (PDE1B; ratio of IC50 values PDE1B / PDE9A2, value greater than 1 indicates greater selectivity for PDE9A2): 39
PDE1A selectivity (versus PDE9A2) (PDE1A; ratio of IC50 values PDE1A / PDE9A2, value greater than 1 indicates greater selectivity for PDE9A2): 19
IC50 (PDE9A2; [3]): < 1000 nM
Structure (SMILES): CC1CN(Cc2ncccn2)CC1c1nn2c(-c3ccccc3F)ncc2c(=O)[nH]1 (single isomer, unassigned; (+)) [(+)-7-(2-fluorophenyl)-2-((3,4-trans)-4-methyl-1-(pyrimidin-2-ylmethyl)pyrrolidin-3-yl)imidazo[5,1-f][1,2,4]triazin-4(3H)-one]

PDE1B selectivity (versus PDE9A2) (PDE1B; [7]): 236
PDE1A selectivity (versus PDE9A2) (PDE1A; [8]): 190
IC50 (PDE9A2; read-out: Band (PDE9A2 IC50)): < 1000 nM
Structure (SMILES): CC1CN(Cc2ccccn2)CC1c1nn2c(-c3cccc(F)c3)ncc2c(=O)[nH]1 (single isomer, unassigned; (+)) [(+)-7-(3-fluorophenyl)-2-((3,4-trans)-4-methyl-1-(pyridin-2-ylmethyl)pyrrolidin-3-yl)imidazo[5,1-f][1,2,4]triazin-4(3H)-one]

PDE1B selectivity (versus PDE9A2) (PDE1B; [7]): 37
PDE1A selectivity (versus PDE9A2) (PDE1A; [8]): 15
IC50 (PDE9A2; read-out: Band (PDE9A2 IC50)): < 1000 nM
Structure (SMILES): CC1CN(Cc2cccnc2)CC1c1nn2c(-c3cccc(F)c3)ncc2c(=O)[nH]1 (single isomer, unassigned; (+)) [(+)-7-(3-fluorophenyl)-2-((3,4-trans)-4-methyl-1-(pyridin-3-ylmethyl)pyrrolidin-3-yl)imidazo[5,1-f][1,2,4]triazin-4(3H)-one]

PDE1B selectivity (versus PDE9A2) (PDE1B; [9]): 1659
PDE1A selectivity (versus PDE9A2) (PDE1A; [10]): 405
IC50 (PDE9A2; [11]): < 1000 nM
Structure (SMILES): CC1CN(Cc2cn3ccccc3n2)CC1c1nn2c(C3CCC(F)(F)CC3)ncc2c(=O)[nH]1 (single isomer, unassigned; (+)) [(+)-7-(4,4-difluorocyclohexyl)-2-((3,4-trans)-1-(imidazo[1,2-a]pyridin-2-ylmethyl)-4-methylpyrrolidin-3-yl)imidazo[5,1-f][1,2,4]triazin-4(3H)-one]

PDE1B selectivity (versus PDE9A2) (PDE1B; [9]): 575
PDE1A selectivity (versus PDE9A2) (PDE1A; [10]): 233
IC50 (PDE9A2; [11]): < 1000 nM
Structure (SMILES): CC1CN(Cc2cnccn2)CC1c1nn2c(C3CCC(F)(F)CC3)ncc2c(=O)[nH]1 (single isomer, unassigned; (+)) [(+)-7-(4,4-difluorocyclohexyl)-2-((3,4-trans)-4-methyl-1-(pyrazin-2-ylmethyl)pyrrolidin-3-yl)imidazo[5,1-f][1,2,4]triazin-4(3H)-one]

PDE1B selectivity (versus PDE9A2) (PDE1B; [9]): 362
PDE1A selectivity (versus PDE9A2) (PDE1A; [10]): 167
IC50 (PDE9A2; [11]): < 1000 nM
Structure (SMILES): CC1CN(Cc2ccccn2)CC1c1nn2c(C3CCC(F)(F)CC3)ncc2c(=O)[nH]1 (single isomer, unassigned; (+)) [(+)-7-(4,4-difluorocyclohexyl)-2-((3,4-trans)-4-methyl-1-(pyridin-2-ylmethyl)pyrrolidin-3-yl)imidazo[5,1-f][1,2,4]triazin-4(3H)-one]

PDE1B selectivity (versus PDE9A2) (PDE1B; [9]): 409
PDE1A selectivity (versus PDE9A2) (PDE1A; [10]): 181
IC50 (PDE9A2; [11]): < 1000 nM
Structure (SMILES): CC1CN(Cc2cccnc2)CC1c1nn2c(C3CCC(F)(F)CC3)ncc2c(=O)[nH]1 (single isomer, unassigned; (+)) [(+)-7-(4,4-difluorocyclohexyl)-2-((3,4-trans)-4-methyl-1-(pyridin-3-ylmethyl)pyrrolidin-3-yl)imidazo[5,1-f][1,2,4]triazin-4(3H)-one]

PDE1B selectivity (versus PDE9A2) (PDE1B; [7]): 179
PDE1A selectivity (versus PDE9A2) (PDE1A; [8]): 232
IC50 (PDE9A2; read-out: Band (PDE9A2 IC50)): < 1000 nM
Structure (SMILES): Cc1cc(F)c(F)cc1-c1ncc2c(=O)[nH]c(C3CN(Cc4ccc(F)cc4)CC3C)nn12 (single isomer, unassigned; (+)) [(+)-7-(4,5-difluoro-2-methylphenyl)-2-((3,4-trans)-1-(4-fluorobenzyl)-4-methylpyrrolidin-3-yl)imidazo[5,1-f][1,2,4]triazin-4(3H)-one]

PDE1B selectivity (versus PDE9A2) (PDE1B; [7]): 9350
PDE1A selectivity (versus PDE9A2) (PDE1A; [8]): 2510
IC50 (PDE9A2; read-out: Band (PDE9A2 IC50)): < 1000 nM
Structure (SMILES): Cc1cc(F)c(F)cc1-c1ncc2c(=O)[nH]c(C3CN(Cc4cn5ccccc5n4)CC3C)nn12 (single isomer, unassigned; (+)) [(+)-7-(4,5-difluoro-2-methylphenyl)-2-((3,4-trans)-1-(imidazo[1,2-a]pyridin-2-ylmethyl)-4-methylpyrrolidin-3-yl)imidazo[5,1-f][1,2,4]triazin-4(3H)-one]

PDE1B selectivity (versus PDE9A2) (PDE1B; [7]): 85
PDE1A selectivity (versus PDE9A2) (PDE1A; [8]): 44
IC50 (PDE9A2; read-out: Band (PDE9A2 IC50)): < 1000 nM
Structure (SMILES): Cc1cc(F)c(F)cc1-c1ncc2c(=O)[nH]c(C3CN(Cc4ncccn4)CC3C)nn12 (single isomer, unassigned; (+)) [(+)-7-(4,5-difluoro-2-methylphenyl)-2-((3,4-trans)-4-methyl-1-(pyrimidin-2-ylmethyl)pyrrolidin-3-yl)imidazo[5,1-f][1,2,4]triazin-4(3H)-one]

PDE1B selectivity (versus PDE9A2) (PDE1B; [9]): 493
PDE1A selectivity (versus PDE9A2) (PDE1A; [10]): 345
IC50 (PDE9A2; [11]): < 1000 nM
Structure (SMILES): Cc1cc(F)ccc1-c1ncc2c(=O)[nH]c(C3CN(Cc4ccc(F)cc4)CC3C)nn12 (single isomer, unassigned; (+)) [(+)-7-(4-fluoro-2-methylphenyl)-2-((3,4-trans)-1-(4-fluorobenzyl)-4-methylpyrrolidin-3-yl)imidazo[5,1-f][1,2,4]triazin-4(3H)-one]

PDE1B selectivity (versus PDE9A2) (PDE1B; [9]): 792
PDE1A selectivity (versus PDE9A2) (PDE1A; [10]): 339
IC50 (PDE9A2; [11]): < 1000 nM
Structure (SMILES): Cc1cc(F)ccc1-c1ncc2c(=O)[nH]c(C3CN(Cc4cn5ccccc5n4)CC3C)nn12 (single isomer, unassigned; (+)) [(+)-7-(4-fluoro-2-methylphenyl)-2-((3,4-trans)-1-(imidazo[1,2-a]pyridin-2-ylmethyl)-4-methylpyrrolidin-3-yl)imidazo[5,1-f][1,2,4]triazin-4(3H)-one]
